Among the data in EP0046734A2, “Aminohydroxyphenyl derivatives of cephalosporins, process for their preparation and pharmaceutical compositions containing them” (CIBA-GEIGY AG, priority 1980, dated 1982) are ED50 and MIC values, retold here.

Molecules are shown by their SMILES. Converted amounts (≈) assume the structure as drawn.

The term ED50 denotes the dose at which the effect has come halfway, by size or by number of responders. The low end stands for an effect at a small dose, the high end for a need for a large dose. Broadly, the MIC is the smallest concentration in the dilution series that meets the test's criterion for growth inhibition. Higher therefore signals weaker potency.

The subject of one test is Proteus mirabilis 774. Briefly: Chemotherapeutic activity in vivo against systemic infection in mice (ED50). Also noted: species or system weiblichen SPF, MF2 Mäusen. The settings on record: po. The text has this: (§1) B. Die chemotherapeutsche Wirksamkeit in vivo gegen systemische Infektionen in weiblichen SPF, MF2 Mäusen wurde nach der Methode von Zak, 0., et al., 1979, Drugs Exptl. Clin. Res. 5, 45.59, ermittelt. Die gefundenen ED50 -Werte in Milligramm Substanz pro Kilogramm Maus (mg/kg) gegen eine Anzahl von Mikroorganismen werden für die oral (p.o.) oder subcutan (s.c.) applizierten Testverbindungen in der Tabelle 2 angegeben.

The test system of test [1] is Staphylococcus aureus 10 B. The test is described as above. Also noted: species or system weiblichen SPF, MF2 Mäusen.
From the text: as §1

Test [2] has as its system Klebsiella pneumoniae 327. The description is as above. The settings on record: po. Also noted: species or system weiblichen SPF, MF2 Mäusen.
From the text: as §1

The test system of another test is Escherichia coli 205. The test is described as above. More on the design: species or system weiblichen SPF, MF2 Mäusen.
From the text: as §1

For a further test, the system named is Neisseria meningitidis. Nature of the test: Antibiotic activity in vitro, agar dilution method in DST agar (MIC). Type of test: cell-based. An excerpt:
(§2) A. Die antibiotische Aktivität der Testverbindungen in vitro wurde durch die Agarverdünnungsmethode nach Ericsson, H.M. und Sherris, S.C., 1971, Acta Path. Microb. Scand. Section B, Suppl. No. 217, Bd. 1-90, in DST Agar ermittelt. Die gefundenen, das Wachstum der Testorganismen noch hemmenden Minimalkonzentrationen (MIC = minimum inhibiting concentrations) werden in Mikrogramm pro Milliliter (µg/ml) für die geprüften Verbindungen in der Tabelle 1 angegeben.
On the technique in general: In agar dilution, organisms are placed on agar that contains the substance at set levels.

Test [3] deals with Streptococcus pyogenes Aronson. The description is as above. Type of test: cell-based.
From the text: as §2

Test [4] deals with Klebsiella pneumoniae 372. Described as above. Type of test: cell-based.
From the text: as §2

For another test, the system named is Escherichia coli DC2. Described as above. Type of test: cell-based.
From the text: as §2

With `CCS(=O)(=O)Nc1cc([C@@H](N)C(=O)N[C@@H]2C(=O)N3C(C(=O)O)=C(Cl)CS[C@H]23)ccc1O` [Verbindung 5, 7ß-[D-2-Amino-2-(3-äthylsulfonylamino-4-hydroxyphenyl)-acetylamino]-3-chlor-ceph-3-em-4-carbonsäure], the 50% effective dose (ED50) in the test with Proteus mirabilis 774 stood at 30 mg/kg; in test [1] (po) it was 7 mg/kg; in test [1] (sc) it was 10 mg/kg; in test [2] it was 1.4 mg/kg; in the test on Escherichia coli 205 (po) it was 4.5 mg/kg; in the test on Escherichia coli 205 (sc), 3 mg/kg. Also, the MIC was found to be 0.1 µg/mL (≈ 0.204 µM) against Neisseria meningitidis, 0.5 µg/mL (≈ 1.02 µM) in test [3], 1 µg/mL (≈ 2.04 µM) in test [4] and 2 µg/mL (≈ 4.07 µM) with Escherichia coli DC2.
As for `COC1=C(C(=O)O)N2C(=O)[C@@H](NC(=O)[C@H](N)c3ccc(O)c(NS(C)(=O)=O)c3)[C@H]2SC1` [Verbindung 1, 7ß-[D-2-Amino-2-(3-methylsulfonylamino-4-hydroxyphenyl)-acetylamino]-3-methoxy-ceph-3-em-4-carbonsäure], the median effective dose (ED50) in the test on Proteus mirabilis 774 came to 22 mg/kg; in test [1] (po), 1.5 mg/kg; in test [1] (sc) it was 3 mg/kg; in test [2], 7 mg/kg; with Escherichia coli 205 (po) it was 5 mg/kg; in the test on Escherichia coli 205 (sc), 6 mg/kg. The MIC in the test on Neisseria meningitidis turned out to be 1 µg/mL (≈ 2.12 µM); in test [3], 0.1 µg/mL (≈ 0.212 µM); in test [4] it was 2 µg/mL (≈ 4.23 µM); against Escherichia coli DC2, 0.5 µg/mL (≈ 1.06 µM).
In the case of `CCS(=O)(=O)Nc1cc([C@@H](N)C(=O)N[C@@H]2C(=O)N3C(C(=O)O)=CCS[C@H]23)ccc1O` [Verbindung 4, 7ß-[D-2-Amino-2-(3-äthylsulfonylamino-4-hydroxyphenyl)-acetylamino]-ceph-3-em-4-carbonsäure], the median effective dose (ED50) was 30 mg/kg in the test on Proteus mirabilis 774; 1.5 mg/kg in test [1] (po); 3 mg/kg in test [1] (sc); 1.4 mg/kg in test [2]; 4.5 mg/kg with Escherichia coli 205 (po); 3 mg/kg with Escherichia coli 205 (sc). Besides, the MIC was 4 µg/mL (≈ 8.76 µM) with Neisseria meningitidis, 1 µg/mL (≈ 2.19 µM) in test [3], 4 µg/mL (≈ 8.76 µM) in test [4] and 4 µg/mL (≈ 8.76 µM) against Escherichia coli DC2.
`CS(=O)(=O)Nc1cc([C@@H](N)C(=O)N[C@@H]2C(=O)N3C(C(=O)O)=CCS[C@H]23)ccc1O` [Verbindung 2, 7ß-[D-2-Amino-2-(3-methylsulfQnylamino-4-hydroxyphenyl)-acetylamino]-ceph-3-em-4-carbonsäure]: the ED50 in the test on Proteus mirabilis 774 came out at 22 mg/kg; in test [1] (po) it was 1.5 mg/kg; in test [1] (sc), 3 mg/kg; in test [2], 3 mg/kg; in the test with Escherichia coli 205 (po) it was 2.2 mg/kg. The MIC in the test with Neisseria meningitidis amounted to 8 µg/mL (≈ 18.1 µM); in test [3] it was 4 µg/mL (≈ 9.04 µM); in test [4] it was 4 µg/mL (≈ 9.04 µM); against Escherichia coli DC2, 4 µg/mL (≈ 9.04 µM).
Take `CS(=O)(=O)Nc1cc([C@@H](N)C(=O)N[C@@H]2C(=O)N3C(C(=O)O)=C(Cl)CS[C@H]23)ccc1O` [Verbindung 3, 7ß-[D-2-Amino-2-(3-methylsulfonylamino-4-hydroxyphenyl)-acetylamino]-3-chlor-ceph-3-em-4-carbonsäure]: the 50% effective dose (ED50) in the test with Proteus mirabilis 774 was found to be 4 mg/kg; in test [1] (po) it was 4 mg/kg; in test [1] (sc) it was 10 mg/kg; in test [2], 3 mg/kg; in the test on Escherichia coli 205 (po), 2 mg/kg; with Escherichia coli 205 (sc), 3 mg/kg. Besides, the MIC in the test on Neisseria meningitidis was 0.5 µg/mL (≈ 1.05 µM); in test [3], 0.5 µg/mL (≈ 1.05 µM); in test [4], 1 µg/mL (≈ 2.1 µM); against Escherichia coli DC2, 0.5 µg/mL (≈ 1.05 µM).
As for `CCS(=O)(=O)Nc1cc([C@@H](N)C(=O)N[C@@H]2C(=O)N3C(C(=O)O)=C(OC)CS[C@H]23)ccc1O` [Verbindung 6, 7ß-[D-2-Amino-2-(3-äthylsulfonylamino-4-hydroxyphenyl)-acetylamino]-3-methoxy-ceph-3-em-4-carbonsäure], the ED50 worked out at 30 mg/kg with Proteus mirabilis 774; 6 mg/kg in test [1] (po); 15 mg/kg in test [1] (sc); 10 mg/kg in test [2]; 6 mg/kg in the test on Escherichia coli 205 (po); 8 mg/kg with Escherichia coli 205 (sc). The MIC in the test on Neisseria meningitidis came to 0.1 µg/mL (≈ 0.206 µM); in test [3] it was 0.5 µg/mL (≈ 1.03 µM); in test [4], 16 µg/mL (≈ 32.9 µM); against Escherichia coli DC2, 2 µg/mL (≈ 4.11 µM).
